# T1: human ATR (ATP:cob(I)alamin adenosyltransferase; hATR) (Homo sapiens, UniProt Q96EY8)
# T1 sequence (Q96EY8 33-250): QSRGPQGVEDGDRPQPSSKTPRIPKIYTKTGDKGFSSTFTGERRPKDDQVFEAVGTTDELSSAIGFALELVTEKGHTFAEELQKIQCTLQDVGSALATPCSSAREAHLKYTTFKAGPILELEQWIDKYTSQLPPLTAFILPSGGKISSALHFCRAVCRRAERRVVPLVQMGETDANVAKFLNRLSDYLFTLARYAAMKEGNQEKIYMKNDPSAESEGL
# T2: human ATR (ATP:cob(I)alamin adenosyltransferase; hATR) (Homo sapiens, UniProt Q96EY8, I96T)
# T2 sequence (Q96EY8 33-250 I96T): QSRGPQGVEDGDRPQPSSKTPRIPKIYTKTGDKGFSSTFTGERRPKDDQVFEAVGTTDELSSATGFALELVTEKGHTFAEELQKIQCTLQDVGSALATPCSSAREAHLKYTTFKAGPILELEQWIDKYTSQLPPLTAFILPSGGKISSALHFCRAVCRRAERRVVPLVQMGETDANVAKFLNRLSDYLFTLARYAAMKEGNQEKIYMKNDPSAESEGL
# What was measured:
# [1] = target: T1, human ATR (ATP:cob(I)alamin adenosyltransferase; hATR); assay: intrinsic fluorescence titration; assay type: binding; conditions: read-out: wild-type; 50 mM Tris-HCl pH 8.0
# [2] = target: T2, human ATR (ATP:cob(I)alamin adenosyltransferase; hATR); assay: intrinsic fluorescence titration; assay type: binding; conditions: read-out: p.I96T; 50 mM Tris-HCl pH 8.0
# SEC = target: the molecule itself; assay: SEC
Kd [1],Kd [2],Molecule,stoichiometry N (SEC)
7.8 ± 0.5 µM,13.3 ± 0.3 µM,CNCbl,
,,"ATP:cob(I)alamin adenosyltransferase p.I96T mutant, human, without the mitochondrial targeting sequence (enzyme, UniProt Q96EY8 33-250, looked up) QSRGPQGVEDGDRPQPSSKTPRIPKIYTKTGDKGFSSTFTGERRPKDDQVFEAVGTTDELSSATGFALELVTEKGHTFAEELQKIQCTLQDVGSALATPCSSAREAHLKYTTFKAGPILELEQWIDKYTSQLPPLTAFILPSGGKISSALHFCRAVCRRAERRVVPLVQMGETDANVAKFLNRLSDYLFTLARYAAMKEGNQEKIYMKNDPSAESEGL",3
